Reference: ChEMBL document CHEMBL3046027, “In vitro and in vivo antifungal activity of synthetic pure isothiocyanates against Sclerotinia sclerotiorum” (Pest Manag Sci, 2011)

How the values were obtained:
[1] = test system: Sclerotinia sclerotiorum; assay: Antifungal activity against Sclerotinia sclerotiorum assessed as inhibition of mycelial growth in contact phase at 676 umol/l measured at 20 degC after 5 days; assay type: functional; settings: 120 h, read-out: GI
[2] = test system: Sclerotinia sclerotiorum; assay: Antifungal activity against Sclerotinia sclerotiorum assessed as inhibition of germination in volatile phase at 225 umol/l measured at 20 degC after 5 days; assay type: functional; settings: 120 h
[3] = test system: Sclerotinia sclerotiorum; assay: Antifungal activity against Sclerotinia sclerotiorum assessed as inhibition of mycelial growth in volatile phase at 375 umol/l measured at 20 degC after 5 days; assay type: functional; settings: 120 h, read-out: GI
[4] = test system: Sclerotinia sclerotiorum; assay: In vivo antifungal Sclerotinia sclerotiorum in Pepper (Capsicum annuum L. cv. Sera Demre) assessed as inhibition of mycelial growth in volatile phase at 150 umol/L measured after 10 to 14 weeks; assay type: functional
[5] = test system: Sclerotinia sclerotiorum; assay: Fungistatic activity in Sclerotinia sclerotiorum assessed as inhibition of mycelial growth in contact phase at 1501 umol/l measured at 20 degC after 5 days relative to control; assay type: functional; settings: 120 h, read-out: GI
[6] = test system: Sclerotinia sclerotiorum; assay: Antifungal activity against Sclerotinia sclerotiorum assessed as inhibition of mycelial growth in volatile phase at 525 umol/l measured at 20 degC after 5 days; assay type: functional; settings: 120 h, read-out: GI
[7] = test system: Sclerotinia sclerotiorum; assay: Fungistatic activity in Sclerotinia sclerotiorum assessed as inhibition of carpogenic germination in volatile phase at 751 umol/l measured at 20 degC after 5 days relative to control; assay type: functional; settings: 120 h
[8] = test system: Sclerotinia sclerotiorum; assay: Fungistatic activity in Sclerotinia sclerotiorum assessed as inhibition of mycelial growth in contact phase measured at 20 degC after 5 days; assay type: functional, organism-based; settings: 120 h
[9] = test system: Sclerotinia sclerotiorum; assay: Fungistatic activity in Sclerotinia sclerotiorum assessed as inhibition of mycelial growth in volatile phase measured at 20 degC after 5 days; assay type: functional, organism-based; settings: 120 h
[10] = test system: Sclerotinia sclerotiorum; assay: Fungistatic activity in Sclerotinia sclerotiorum assessed as sclerotial viability measured at 20 degC after 5 days; assay type: functional, organism-based; settings: 120 h
[11] = test system: Sclerotinia sclerotiorum; assay: Antifungal activity against Sclerotinia sclerotiorum assessed as inhibition of mycelial growth in contact phase at 525 umol/l measured at 20 degC after 5 days; assay type: functional; settings: 120 h, read-out: GI
[12] = test system: Sclerotinia sclerotiorum; assay: Antifungal activity against Sclerotinia sclerotiorum assessed as inhibition of mycelial growth in contact phase at 1501 umol/l measured at 20 degC after 5 days; assay type: functional; settings: 120 h, read-out: GI
[13] = test system: Sclerotinia sclerotiorum; assay: In vivo antifungal Sclerotinia sclerotiorum in Pepper (Capsicum annuum L. cv. Sera Demre) assessed as inhibition of mycelial growth in volatile phase at 75 umol/L measured after 10 to 14 weeks; assay type: functional
[14] = test system: Sclerotinia sclerotiorum; assay: Fungitoxic activity in Sclerotinia sclerotiorum assessed as inhibition of mycelial growth in volatile phase at 751 umol/l measured at 20 degC after 5 days relative to control; assay type: functional; settings: 120 h, read-out: GI
[15] = test system: Sclerotinia sclerotiorum; assay: Antifungal activity against Sclerotinia sclerotiorum assessed as inhibition of germination in volatile phase at 75 umol/l measured at 20 degC after 5 days; assay type: functional; settings: 120 h
[16] = test system: Sclerotinia sclerotiorum; assay: Fungistatic activity in Sclerotinia sclerotiorum assessed as inhibition of mycelial growth in volatile phase at 525 umol/l measured at 20 degC after 5 days relative to control; assay type: functional; settings: 120 h, read-out: GI
[17] = test system: Sclerotinia sclerotiorum; assay: Antifungal activity against Sclerotinia sclerotiorum assessed as inhibition of mycelial growth in contact phase at 2252 umol/l measured at 20 degC after 5 days; assay type: functional; settings: 120 h, read-out: GI
[18] = test system: Sclerotinia sclerotiorum; assay: Fungitoxic activity in Sclerotinia sclerotiorum assessed as inhibition of mycelial growth in contact phase at 2252 umol/l measured at 20 degC after 5 days relative to control; assay type: functional; settings: 120 h, read-out: GI
[19] = test system: Sclerotinia sclerotiorum; assay: Antifungal activity against Sclerotinia sclerotiorum assessed as inhibition of germination in volatile phase at 375 umol/l measured at 20 degC after 5 days; assay type: functional; settings: 120 h
[20] = test system: Sclerotinia sclerotiorum; assay: Antifungal activity against Sclerotinia sclerotiorum assessed as inhibition of mycelial growth in volatile phase at 38 umol/l measured at 20 degC after 5 days; assay type: functional; settings: 120 h, read-out: GI
[21] = test system: Sclerotinia sclerotiorum; assay: Fungistatic activity in Sclerotinia sclerotiorum assessed as inhibition of carpogenic germination in volatile phase at 75 umol/l measured at 20 degC after 5 days relative to control; assay type: functional; settings: 120 h
[22] = test system: Sclerotinia sclerotiorum; assay: Antifungal activity against Sclerotinia sclerotiorum assessed as inhibition of germination in volatile phase at 751 umol/l measured at 20 degC after 5 days; assay type: functional; settings: 120 h
[23] = test system: Sclerotinia sclerotiorum; assay: Fungistatic activity in Sclerotinia sclerotiorum assessed as inhibition of carpogenic germination in volatile phase at 375 umol/l measured at 20 degC after 5 days relative to control; assay type: functional; settings: 120 h
[24] = test system: Sclerotinia sclerotiorum; assay: Fungistatic activity in Sclerotinia sclerotiorum assessed as inhibition of carpogenic germination in volatile phase at 38 umol/l measured at 20 degC after 5 days relative to control; assay type: functional; settings: 120 h
[25] = test system: Sclerotinia sclerotiorum; assay: Antifungal activity against Sclerotinia sclerotiorum assessed as inhibition of germination in volatile phase at 38 umol/l measured at 20 degC after 5 days; assay type: functional; settings: 120 h
[26] = test system: Sclerotinia sclerotiorum; assay: Antifungal activity against Sclerotinia sclerotiorum assessed as inhibition of mycelial growth in contact phase at 751 umol/l measured at 20 degC after 5 days; assay type: functional; settings: 120 h, read-out: GI
[27] = test system: Sclerotinia sclerotiorum; assay: Fungitoxic activity in Sclerotinia sclerotiorum assessed as viability in volatile phase at 225 umol/l measured at 20 degC after 5 days relative to control; assay type: functional; settings: 120 h, read-out: GI
[28] = test system: Sclerotinia sclerotiorum; assay: Antifungal activity against Sclerotinia sclerotiorum assessed as inhibition of mycelial growth in volatile phase at 751 umol/l measured at 20 degC after 5 days; assay type: functional; settings: 120 h, read-out: GI
[29] = test system: Sclerotinia sclerotiorum; assay: Antifungal activity against Sclerotinia sclerotiorum assessed as inhibition of mycelial growth in volatile phase at 75 umol/l measured at 20 degC after 5 days; assay type: functional; settings: 120 h, read-out: GI

## S=C=NCc1ccccc1 [BENZYL ISOTHIOCYANATE]
[1]
  inhibition of growth at 676 µM: 37%
[2]
  inhibition at 225 µM: 100%
[3]
  inhibition of growth at 375 µM: 78.2%
[4]
  inhibition in vivo at 150 µM: 63.3%
[5]
  inhibition of growth at 1501 µM: 100%
[6]
  inhibition of growth at 525 µM: 100%
[7]
  inhibition at 751 µM: 92.5%
[8]
  EC50: 676 µM
[9]
  EC50: 60.1 µM
[10]
  EC50: 75.1 µM
[11]
  inhibition of growth at 525 µM: 5%
[12]
  inhibition of growth at 1501 µM: 100%
[13]
  inhibition in vivo at 75 µM: 36.7%
[14]
  inhibition of growth at 751 µM: 100%
[15]
  inhibition at 75 µM: 53.3%
[16]
  inhibition of growth at 525 µM: 100%
[17]
  inhibition of growth at 2252 µM: 100%
[18]
  inhibition of growth at 2252 µM: 100%
[19]
  inhibition at 375 µM: 100%
[20]
  inhibition of growth at 38 µM: 35%
[21]
  inhibition at 75 µM: 62.5%
[22]
  inhibition at 751 µM: 100%
[23]
  inhibition at 375 µM: 72.5%
[24]
  inhibition at 38 µM: 55%
[25]
  inhibition at 38 µM: 6.7%
[26]
  inhibition of growth at 751 µM: 100%
[27]
  inhibition of growth at 225 µM: 100%
[28]
  inhibition of growth at 751 µM: 100%
[29]
  inhibition of growth at 75 µM: 71.2%
